Laboratory results from patent US20110229482A1, “Method of inhibiting infection by HCV, other flaviviridae viruses, and any other virus that complexes to low density lipoprotein or to very low density lipoprotein in blood by preventing viral entry into a cell” (priority 2000, published 2011).
Like-named read-outs stand apart in the source and are kept apart here.

Experiments:
[1] = molecular target: T1, LDL receptor (Homo sapiens, UniProt P01130); assay: DiI-LDL endocytosis (uptake) by cultured cells, flow cytometry / fluorescence microscopy; assay type: cell-based; conditions: for Mean fluorescence: DiI-LDL treatment
T1 construct: endogenous in cells; host or cells: G4 B-lymphocyte line (human-mouse heterohybridoma fused with patient B cells), HepG2 hepatoma cells
Experimental: LDL Receptor Assays: Cells were cultured in Roswell Park Memorial Institute (RPMI) medium supplemented either with 10% BVDV-free bovine calf serum or with RPMI medium supplemented with 10% lipoprotein-deficient BVDV-free medium to upregulate expression of the LDL receptor. The cells were then washed twice with phosphate-buffered saline (PBS), pH 7.2. Cytospin preparations were made, fixed with acetone, blocked with 5% normal mouse serum, and the LDL receptor visualized by incubating the slides with 5 μg/ml purified IgG 2a monoclonal anti-LDL receptor antibody followed by a 1:50 dilution of fluorescein (FITC)-labeled goat anti-mouse [F(ab)′2] second antibody (Jackson Immunoresearch, West Grove, Pa.).
The cells were washed twice with cold PBS and fixed with 1% buffered paraformaldehyde, and cytospin preparations were made for fluorescent microscopic studies or cells in suspension were analyzed by flow cytometry. Flow cytometric analysis was performed using the Epic XL-MCL cytometer (Coulter Corp., Miami, Fla.) using a 575 BP filter. Nonspecific binding of DiI-LDL was determined using DiI-LDL treated with cyclohexanedione and was subtracted from the DiI-LDL binding to give specific DiI-LDL binding to cultured cells.

[2] = system: HCV; assay type: in vivo, mouse
[3] = system: HCV; assay type: cell-based, hepatitis C virus; set-up: key to Endocytosis of 1 × 10^6 gE HCV from each fraction intensity of staining: ++: Moderately positive; +: Weakly positive
[4] = system: LDL receptor; assay: LDL receptor expression in liver sections of hLDLR Tg mice, fluorescence staining; assay type: in vivo; conditions: Tg mouse pretreated with 0.5 mg, then inoculated with HCV
[5] = density gradient fractions of HCV serum, ISH

T1 sequence (P01130 22-860): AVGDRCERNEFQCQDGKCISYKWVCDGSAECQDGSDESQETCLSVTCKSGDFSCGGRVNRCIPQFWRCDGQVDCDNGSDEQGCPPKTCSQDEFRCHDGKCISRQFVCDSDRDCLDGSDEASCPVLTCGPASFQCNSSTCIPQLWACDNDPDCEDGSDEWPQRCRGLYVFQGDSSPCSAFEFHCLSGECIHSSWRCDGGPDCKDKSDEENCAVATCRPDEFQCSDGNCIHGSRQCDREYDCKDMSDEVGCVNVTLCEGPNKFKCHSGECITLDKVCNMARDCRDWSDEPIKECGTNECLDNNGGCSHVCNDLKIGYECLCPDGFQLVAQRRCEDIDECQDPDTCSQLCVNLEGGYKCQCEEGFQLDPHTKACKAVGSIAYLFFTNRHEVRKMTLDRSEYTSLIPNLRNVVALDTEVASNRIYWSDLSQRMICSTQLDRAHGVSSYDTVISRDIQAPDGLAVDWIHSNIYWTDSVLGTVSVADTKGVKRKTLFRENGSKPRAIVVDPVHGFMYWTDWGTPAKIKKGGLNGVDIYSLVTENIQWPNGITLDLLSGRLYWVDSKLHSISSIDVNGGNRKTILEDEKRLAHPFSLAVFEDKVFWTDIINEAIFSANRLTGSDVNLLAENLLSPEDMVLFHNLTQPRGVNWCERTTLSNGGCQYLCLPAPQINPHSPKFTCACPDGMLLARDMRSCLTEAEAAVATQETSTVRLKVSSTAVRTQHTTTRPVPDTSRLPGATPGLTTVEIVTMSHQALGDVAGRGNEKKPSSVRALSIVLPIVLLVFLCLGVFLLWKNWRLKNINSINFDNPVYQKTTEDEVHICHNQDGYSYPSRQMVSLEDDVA

DiI-LDL: LDL labeled with 1,1′-dioctadecyl-3,3,3′,3′-tetramethylindocarbocyanine iodine (DiI)
Mean fluorescence ([1]; G4 cells, lipoprotein deficient medium (upregulated LDL receptor)): 16 ± 7
Mean fluorescence ([1]; G4 cells, routine culture medium (RPMI with 10% fetal bovine serum)): 4 ± 2.0
Mean fluorescence ([1]; HepG2 cells, routine culture medium): 16 ± 5

5^th repeat peptide: 39 amino acid 5th repeat of the ligand binding domain of the LDL receptor, amino acids 193-231 of SEQ ID NO:1
Inhibition of endocytosis of HCV by hepatocytes ([2]; hLDLR Tg mouse, 1 mg one hour prior to intraperitoneal HCV (5.0×10^6 gE)): completely inhibits

LDL: low density lipoprotein, d=1.019-1.063 g/ml, from normal sera or purchased from Cortex
Endocytosis of 5 μg DiI-labeled fraction mean fluorescence (log scale) ([1]; density gradient fractions of HCV serum): 9.98
Inhibition of uptake of DiI-LDL ([1]; upregulated G4 cells, 5 μg DiI-LDL, excess unlabeled LDL): completely inhibited
Restoration of endocytosis of "free" HCV [3]: restoration of endocytosis
Inhibition of endocytosis of HCV (competitive) ([3]; HepG2 or B cells (G4 and E11), 25-100 μg/ml): completely inhibited
Endocytosis of 1 × 10^6 gE HCV from each fraction % cell positive [3, 5]: 75%
Endocytosis of 1 × 10^6 gE HCV from each fraction intensity of staining [3, 5]: +

O=C(O)CN(CCOCCOCCN(CC(=O)O)CC(=O)O)CC(=O)O [EGTA, ethylene glycol bis(β-aminoethyl ether)-N,N,N′,N′-tetraacetic acid]
Inhibition of endocytosis of HCV [3]: inhibited

CC(C)c1c(C(=O)Nc2ccccc2)c(-c2ccccc2)c(-c2ccc(F)cc2)n1CC[C@@H](O)C[C@@H](O)CC(=O)O [atorvastatin]
Modulation of LDL receptor (fluorescence staining) [4]: upregulation of the LDL receptor
Quantitative HCV of the liver ([2]; Tg mouse pretreated with 0.5 mg, control mouse 43): 163 HCV gE per mg liver

soluble LDL receptor: soluble LDL receptor (SEQ ID NO:1)
Inhibition of endocytosis of HCV ([3]; Daudi cells, pretreatment 30 minutes at 37° C., HCV 2 hours at 37° C.): completely inhibits

heparin sulfate
Inhibition of endocytosis of HCV ([3]; 25 units/ml): inhibited
